Consider 4 compounds from US20260007133A1, “HERBICIDAL COMPOSITION COMPRISING AZINE COMPOUNDS” (BASF SE, priority 2022, published 2026).

Read-outs that look alike come from different tables or passages of the source.

Assay type in all cases: in vivo
The test system of test [1] is Abutilon theophrasti. Description: Greenhouse pre-emergence (PRE) herbicidal test on ABUTH. The conditions noted are these: PRE, ABUTH. The method, boiled down:
(§1)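 Seeds were sown per species in pots of loamy sand with about 3.0% humus, treated pre-emergence, watered and hooded until rooted. Plants grew at 10-25° C or 20-35° C depending on species. Damage was scored 0-100 (100 = no emergence or above-ground parts destroyed) at 20 DAT.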

The next test relates to Euphorbia heterophylla. Description: Greenhouse pre-emergence (PRE) herbicidal test on EPHHL. Particulars: PRE. The method, boiled down: as §1
A further test deals with Galium aparine. Nature of the test: Greenhouse pre-emergence (PRE) herbicidal test on GALAP. The conditions noted are these: PRE, GALAP; for inhibition at 200 g/ha: use rate 200 gai/ha. The source says:
(§2) The culture containers used were plastic pots containing loamy sand with approximately 3.0% of humus as substrate. The seeds of the test plants were sown separately for each species.
(§3) For the pre-emergence treatment, the active compounds, suspended or emulsified in water, were applied directly after sowing by means of finely distributing nozzles. The containers were irrigated gently to promote germination and growth and subsequently covered with transparent plastic hoods until the plants had rooted. This cover caused uniform germination of the test plants unless this was adversely affected by the active compounds.
(§4) Depending on the species, the plants were kept at 10-25° C. and 20-35° C., respectively.
(§5) The test period extended over 2 to 4 weeks. During this time, the plants were tended and their response to the individual treatments was evaluated.
(§6) Evaluation was carried out using a scale from 0 to 100. 100 means no emergence of the plants, or complete destruction of at least the above-ground parts, and 0 means no damage or normal course of growth. A good herbicidal activity is given at values of at least 70, and very good herbicidal activity is given at values of at least 85.
(§7) If not stated differently, the respective components A and B, and if appropriate, C were formulated as a 5% by weight strength emulsion concentrate and, with addition of the amount of solvent system, introduced into the spray liquor used for applying the active compound.
(§8) As indicated application was either post emergent (POST) at the respective growth stage (GS) of the weed (BBCH code), or pre-emergent (PRE).
(§9) Assessment was 20 days after treatment (DAT).

The test system of the next test is Polygonum convolvulus. Description: Greenhouse pre-emergence (PRE) herbicidal test on POLCO.
From the text: as §2, §3, §4, §5, §6, §7, §8, §9

Test [2] relates to Commelina benghalensis. Nature of the test: Greenhouse pre-emergence (PRE) herbicidal test on COMBE. Particulars: Commelina benghalensis, pre-emergence, PRE, COMBE. The method, boiled down: as §1
Another test deals with Lolium multiflorum. Description: Greenhouse pre-emergence (PRE) herbicidal test on LOLMU. Particulars: Lolium multiflorum, pre-emergence, PRE, LOLMU. The method, boiled down: as §1
The test system of a further test is Brachiaria decumbens. Nature of the test: Greenhouse pre-emergence (PRE) herbicidal test on BRADC. Particulars: Urochloa decumbens, PRE, BRADC.
From the text: as §2, §3, §4, §5, §6, §7, §8, §9

The test system of test [3] is Geranium pusillum. Nature of the test: Greenhouse pre-emergence (PRE) herbicidal test on GERPU. The conditions noted are these: Geranium pusillum, pre-emergence, PRE; GERPU; use rate 200 gai/ha.
From the text: as §2, §3, §4, §5, §6, §7, §8, §9

The next test has as its system Alopecurus myosuroides. Description: Greenhouse pre-emergence (PRE) herbicidal test on ALOMY. Particulars: Alopecurus myosuroides, pre-emergence, 480 h, PRE, ALOMY, 20 DAT, read-out: % activity solo application. In a few lines:
as §1

For test [4], the system named is Amaranthus retroflexus. Nature of the test: Greenhouse pre-emergence (PRE) herbicidal test on AMARE. The conditions noted are these: Amaranthus retroflexus, pre-emergence, 480 h; PRE, AMARE, 1.25 gai/ha, 20 DAT; read-out: % activity solo application. In a few lines: as §1
In another test the test system is Ambrosia artemisiifolia. Nature of the test: Greenhouse pre-emergence (PRE) herbicidal test on AMBEL. The conditions noted are these: Ambrosia artemisiifolia, pre-emergence, 480 h, PRE, AMBEL, 20 DAT, read-out: % activity solo application.
In another test the test system is Echinochloa crus-galli. Description: Greenhouse pre-emergence (PRE) herbicidal test on ECHCG. The conditions noted are these: Echinochloa crus-galli, pre-emergence, 480 h, PRE, ECHCG, 20 DAT, read-out: % activity solo application.
The test system of test [5] is Ipomoea hederacea. Nature of the test: Greenhouse pre-emergence (PRE) herbicidal test on IPOHE. The conditions noted are these: Ipomoea hederacea, pre-emergence, 480 h, PRE, IPOHE, 20 DAT.
From the text: as §2, §3, §4, §5, §6, §7, §8, §9

Test [6] relates to Setaria viridis. Description: Greenhouse pre-emergence (PRE) herbicidal test on SETVI. The conditions noted are these: Setaria viridis, pre-emergence, 480 h, PRE, SETVI, 20 DAT, read-out: % activity solo application. The method, boiled down:
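Seeds sown per species in pots of loamy sand with approx. 3.0% humus; compounds suspended or emulsified in water were sprayed via fine nozzles directly after sowing. Pots were watered and hooded until rooted, held at 10-25° C. or 20-35° C. by species, and scored 0–100 (100 = no emergence/complete destruction) 20 DAT.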

The subject of test [7] is Abutilon theophrasti. Description: Greenhouse post-emergence (POST) herbicidal test on ABUTH. Particulars: Abutilon theophrasti, post-emergence, 480 h, POST, ABUTH, 20 DAT, read-out: % activity solo application. The method, boiled down: (§10)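 Visual damage rating on a 0–100 scale, 0 meaning normal growth and 100 complete kill of above-ground parts, taken 20 days after treatment. Spray applied post-emergence to plants 3–15 cm tall in loamy sand with approximately 3.0% humus.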

In test [8] the test system is Amaranthus retroflexus. Nature of the test: Greenhouse post-emergence (POST) herbicidal test on AMARE. The conditions noted are these: Amaranthus retroflexus, post-emergence, 480 h, POST, AMARE, 20 DAT, read-out: % activity solo application. In a few lines: as §10
Test [9] has as its system Commelina benghalensis. Description: Greenhouse post-emergence (POST) herbicidal test on COMBE. The conditions noted are these: 480 h, use rate 1.25 gai/ha, 20 DAT. How it is done: as §2
(§11) For the post-emergence treatment, the test plants were grown to a plant height of from 3 to 15 cm, depending on the plant habit, and only then treated with the active compounds which had been suspended or emulsified in water. To this end, the test plants were either sown directly, and grown in the same containers, or they were first grown separately as seedlings and transplanted into the test containers a few days prior to treatment.
as §4, §5, §6, §7, §8, §9

The subject of a further test is Digitaria sanguinalis. Description: Greenhouse post-emergence (POST) herbicidal test on DIGSA. The conditions noted are these: Digitaria sanguinalis, post-emergence, 480 h, POST, DIGSA, 5 gai/ha, 20 DAT; read-out: % activity solo application. In a few lines: as §10
Test [10] concerns Geranium pusillum. Nature of the test: Greenhouse post-emergence (POST) herbicidal test on GERPU. The conditions noted are these: Geranium pusillum, post-emergence, 480 h, POST, GERPU, 20 DAT. The method, boiled down: as §10
The subject of test [11] is Ipomoea hederacea. Nature of the test: Greenhouse post-emergence (POST) herbicidal test on IPOHE. Particulars: Ipomoea hederacea, post-emergence, 480 h, POST, IPOHE, 20 DAT, read-out: % activity solo application. The method, boiled down: as §10
Test [12] deals with Setaria viridis. Description: Greenhouse post-emergence (POST) herbicidal test on SETVI. The conditions noted are these: 480 h, use rate 5 gai/ha, 20 DAT. How it is done:
as §2, §11, §4, §5, §6, §7, §8, §9

Setting [13] is: 480 h, 1.25 gai/ha, 20 DAT, read-out: % activity solo application.

In the case of `CC1(C)CON(Cc2ccc(Cl)cc2Cl)C1=O` [Bixlozone, bixlozone], the “% activity” value is 0% in the test with Abutilon theophrasti [1] (use rate 60 gai/ha); 0% with Euphorbia heterophylla (EPPHL, use rate 15 gai/ha); 0% in the test on Euphorbia heterophylla (EPPHL, use rate 60 gai/ha); 50% in the test with Galium aparine (use rate 60 gai/ha); 0% with Polygonum convolvulus (use rate 60 gai/ha).

`CCC(CC)Nc1c([N+](=O)[O-])cc(C)c(C)c1[N+](=O)[O-]` [Pendimethalin, pendimethalin]: the inhibition at 200 g/ha was 65% with Abutilon theophrasti [1] (Abutilon theophrasti, pre-emergence, use rate 200 gai/ha); 40% with Commelina benghalensis [2] (use rate 200 gai/ha); 0% in the test on Galium aparine (Galium aparine, pre-emergence); 0% in the test with Lolium multiflorum (use rate 200 gai/ha). For the same compound, the inhibition at 800 g/ha with Commelina benghalensis [2] (use rate 800 gai/ha) was 50%; in the test with Galium aparine (Galium aparine, pre-emergence, use rate 800 gai/ha), 10%; in the test on Polygonum convolvulus (Fallopia convolvulus, pre-emergence, use rate 800 gai/ha), 70%.

Consider `CCCOCCN(C(=O)CCl)c1c(CC)cccc1CC` [Pretilachlor, pretilachlor], for which the inhibition at 25 g/ha in the test with Brachiaria decumbens (use rate 25 gai/ha) is 0%; in the test with Euphorbia heterophylla (Euphorbia heterophylla, pre-emergence, EPPHL, use rate 25 gai/ha), 0%; in the test on Lolium multiflorum (use rate 25 gai/ha) it was 0%; in the test on Polygonum convolvulus (Fallopia convolvulus, pre-emergence, use rate 25 gai/ha), 0%. Moreover, the inhibition at 200 g/ha amounted to 40% with Brachiaria decumbens (use rate 200 gai/ha); 10% with Euphorbia heterophylla (Euphorbia heterophylla, pre-emergence, EPPHL, use rate 200 gai/ha); 15% with Galium aparine (Galium aparine, pre-emergence); 45% in the test with Geranium pusillum [3]; 30% in the test on Polygonum convolvulus (Fallopia convolvulus, pre-emergence, use rate 200 gai/ha).

`CC(C)N(C)S(=O)(=O)NC(=O)c1cc(-n2c(=O)cc(C(F)(F)F)n(C)c2=O)c(F)cc1Cl` [Saflufenacil, saflufenacil]: the inhibition at 1.25 g/ha in the test on Abutilon theophrasti [1] (Abutilon theophrasti, pre-emergence, 480 h, 1.25 gai/ha, 20 DAT, read-out: % activity solo application) came to 10%; in the test on Alopecurus myosuroides (1.25 gai/ha) it was 20%; in the test with Amaranthus retroflexus [4] it was 0%; in the test on Ambrosia artemisiifolia (1.25 gai/ha), 0%; in the test on Commelina benghalensis [2] (setting [13]), 5%; with Echinochloa crus-galli (1.25 gai/ha), 0%. Moreover, the inhibition at 1.25 g/ha is 5% in the test on Euphorbia heterophylla (Euphorbia heterophylla, pre-emergence, 480 h, EPHHL, 1.25 gai/ha, 20 DAT, read-out: % activity solo application); 0% in the test on Lolium multiflorum (setting [13]); 0% in the test on Setaria viridis [6] (1.25 gai/ha); 5% in the test on Abutilon theophrasti [7] (1.25 gai/ha); 0% in the test on Amaranthus retroflexus [8] (1.25 gai/ha); 60% with Commelina benghalensis [9]. The inhibition at 1.25 g/ha with Ipomoea hederacea [11] (1.25 gai/ha) stood at 0%. Also, the inhibition at 5 g/ha is 10% in the test with Alopecurus myosuroides (5 gai/ha); 50% in the test with Ambrosia artemisiifolia (5 gai/ha); 0% in the test with Echinochloa crus-galli (5 gai/ha); 50% in the test on Euphorbia heterophylla (Euphorbia heterophylla, pre-emergence, 480 h, EPHHL, 5 gai/ha, 20 DAT, read-out: % activity solo application); 25% in the test with Ipomoea hederacea [5] (use rate 5 gai/ha); 0% in the test on Lolium multiflorum (480 h, 5 gai/ha, 20 DAT, read-out: % activity solo application). The inhibition at 5 g/ha in the test on Lolium multiflorum (480 h, use rate 5 gai/ha, 20 DAT, read-out: % activity) stood at 45%; in the test with Setaria viridis [6] (5 gai/ha), 0%; in the test on Abutilon theophrasti [7] (5 gai/ha), 10%; with Amaranthus retroflexus [8] (5 gai/ha), 0%; with Digitaria sanguinalis, 0%; in the test on Geranium pusillum [10] (use rate 5 gai/ha, read-out: % activity), 80%. In addition, the inhibition at 5 g/ha in the test with Ipomoea hederacea [11] (5 gai/ha) was found to be 10%; with Setaria viridis [12] it was 60%. In addition, the figures for the inhibition at […] with Ipomoea hederacea [5] (use rate 2.5 gai/ha) and in the test on Geranium pusillum [10] (use rate 2.5 gai/ha) were 5% and 60%, respectively.
